From patent publication US8940310B2, “Methods of treatment using TLR7 and/or TLR9 inhibitors” (Dynavax Technologies Corporation, priority 2010, dated 2015) come the findings set out here.

The test system of this data set is TLR7 and TLR9. Briefly: Tape stripping skin injury in 129 mice. Conditions: 24 hr. Format: in vivo. How it is done:
C57BL/6 and 129 mice were purchased from Charles River Laboratories. (NZBxNZW)F1 female mice were purchased from Jackson Laboratories and used at 18-22 weeks of age. MyD88/KO and TLR9/KO mouse colonies were maintained at Simonsen Laboratories and used with age matched C57BL/6 wild type controls at 8-12 weeks of age. Tape stripping was performed after shaving the dorsal area (3×3 cm) using 10 strokes with duct tape. IRS was administered just before tape stripping SC at a distant site. Alternatively, in (NZBxNZW)F1 mice, IRS was administered long term. In certain experiments PDC and neutrophils were depleted with 250 μg of antibody given IP at day −2 and day 0, eight hours before tape stripping. Anti-120G8 (Imgenex) was used for depletion of PDC (Asselin-Paturel et al., 2003), and anti-GR1-LY6G (clone 1A8; Biolegend) was used for depletion of neutrophils (Daley et al., 2008). […] Percentage of area with open lesions in (NZBxNZW)F1 and normal mice was evaluated with Nikon software NIS-elements.
For analysis of cellular infiltrate mice were sacrificed 24 hr later and epidermis and derma were mechanically separated followed by enzymatic digestion with 0.28 U/ML of Liberase 3 (Roche) for 20 minutes at 37° C., passed trough a 70 μm filter washed in RPMI without serum, counted and stained for flow cytometric analyses. […]

“5′-TGCTCCTGGAGGGGTTGT-3′ (DNA, backbone not given here) [SEQ ID NO:42]”: the “infiltration of cells including PDC and neutrophils” value is reported as “no measurable effect on infiltration of cells”. In addition, the “expression of IFN-α regulated and pro-inflammatory genes in skin” value (100 μg s.c. before tape stripping) is “significantly reduced the expression of both IFN-α regulated genes and pro-inflammatory genes”.
